In experiment [1] the test system is rabbit right ventricle papillary muscle. Kind of experiment: Positive inotropic effect (contractility) in isolated electrically driven papillary muscle. It is filed as cell-based. The settings on record: Oryctolagus cuniculus; for Emax: papillary muscle, read-out: Tmax ISA; for EC50: rabbit right ventricle papillary muscle, read-out: Tmax EC50. The protocol:
(§1) Pharmacological studies on cardiac effects on heart frequency and contractility in isolated right atria and papillary muscle from rabbit. Rabbits with an average weight of 2.5 kg were killed by a blow and the hearts were rapidly removed. The right atria and a papillary muscle from the right ventricle were isolated and set up to contract isometrically in an organ bath. The bath contained 50 ml Krebs-buffer (pH 7.4) and the temperature was kept at 32°C. The contractions were measured by means of a force displacement transducer (Grass Model FT03) coupled to a Grass Model 7 Polygraph with a […] (Grass Model 7PIF). The spontaneously beating right atria was stretched to a resting tension high enough to measure the contractions and to trigger a tachograph for registration of the frequency. The papillary muscle was stretched to the length at which maximal tension was developed and was driven at a frequency of 1 Hz by a current 20 per cent above treshold and with a duration of 5 msec. After 60 min. equilibration, dose response curves to cumulative concentrations of isoprenaline were constructed for chronotropic effect, i.e. increase in frequency (atria) and positive inotropic effect, i.e. increase in contractility (papillary muscle). After wash-out similar curves were constructed for the compounds according to the invention. The positive inotropic agent dopamine was included for comparison. In order to establish the maximal chronotropic and inotropic responses of the preparations, isoprenaline was added immediately after the maximal concentrations of the compounds. The maximal effects of the compounds compared with the maximal effect of isoprenaline are expressed as intrinsic activity (ISA).

The next experiment deals with rabbit right atria. Kind of experiment: Chronotropic effect (heart frequency) in isolated spontaneously beating right atria. It is filed as cell-based. Conditions: for Emax / EC50: Oryctolagus cuniculus, rabbit right atria, heart rate; for Emax: read-out: HR ISA; for positive chronotropic effect: result in words, isolated rabbit right atria; for EC50: cumulative concentrations, Krebs-buffer pH 7.4, 32°C, read-out: HR EC50. The protocol:
as §1

Setting [2] is: Tested after β-blockade, intrinsic activity vs isoprenaline.
The mark [3] stands for this setting: intrinsic activity: maximal effect compared with maximal effect of isoprenaline.
[4] abbreviates: driven at 1 Hz, Krebs-buffer pH 7.4, 32°C.

Counter-ions that a name gives are not always drawn. Like-named read-outs stand apart in the source and are kept apart here.

`CCCCN1CCCC(c2cc(O)cc(O)c2)C1` (centres unmarked) [Example 5]: the values for the Emax (in experiment [1] (setting [2]); in the experiment with rabbit right atria (setting [2])) were 42% and 0%, respectively. In addition, the EC50 in experiment [1] (Tested after β-blockade) was determined as 18.4 µM.

Take `CCCCCN1CCCC(c2cc(O)cc(O)c2)C1` (centres unmarked) [Example 6]: the figures for the Emax (in experiment [1] (setting [3]); in the experiment with rabbit right atria (setting [3])) were 43% and 0%, respectively. Moreover, the EC50 in experiment [1] (setting [4]) came out at 0.24 µM.

Regarding `CC(C)N1CCCC(c2cc(O)cc(O)c2)C1` (centres unmarked) [Example 7], the Emax in experiment [1] (setting [2]) amounted to 26%; with rabbit right atria (setting [2]), 0%. In addition, the EC50 in experiment [1] (Tested after β-blockade) was 43 µM.

In the case of `CCCN1CCCC(c2cc(O)cc(O)c2)C1` (centres unmarked) [Example 1, 3=(3,5=Dihydroxyehenyl)N-n-eroeyleiperidine hydrobromide], the Emax in experiment [1] (setting [3]) turned out to be 30%; in the experiment with rabbit right atria (setting [3]), 0%. In addition, the EC50 in experiment [1] (setting [4]) amounted to 107 µM. In the experiment with rabbit right atria, the positive chronotropic effect result is “no positive chronotropic effect”.

As to `CC(C)NCC(O)c1ccc(O)c(O)c1` (centres unmarked) [Isoprenaline, reference compound], the Emax (in experiment [1] (setting [3]); in the experiment on rabbit right atria (setting [3])) was 100% in each case. Also, the figures for the EC50 (in experiment [1] (setting [4]); in the experiment with rabbit right atria) were 0.01 µM and 0.003 µM, respectively. In addition, in the experiment on rabbit right atria, the positive chronotropic effect result is “marked positive chronotropy in doses significantly lower than those producing positive inotropy”.

As to `NCCc1ccc(O)c(O)c1` [Dopamine, reference compound], the Emax is 78% in experiment [1] (setting [3]) and 91% in the experiment on rabbit right atria (setting [3]). The EC50 in experiment [1] (setting [4]) is 19.7 µM; with rabbit right atria, 14.2 µM. The positive chronotropic effect result with rabbit right atria was “marked positive chronotropic effect in doses which caused positive inotropy”.

Turning to `CN1CCCC(c2cc(O)cc(O)c2)C1` (centres unmarked) [Example 3, 3-(3,5-Dihydroxyphenl)-N-methlpiperidine], the Emax in experiment [1] (setting [3]) came out at 37%; in the experiment with rabbit right atria (setting [3]), 0%. Moreover, the EC50 in experiment [1] (setting [4]) was 11 µM.

As to `CCN1CCCC(c2cc(O)cc(O)c2)C1` (centres unmarked) [Example 2, 3-(3,5-Dihydroxyehenyl)-N-ethylpiperidine hydrobromide], the Emax came to 32% in experiment [1] (setting [3]) and 0% in the experiment with rabbit right atria (setting [3]). Also, the EC50 in experiment [1] (setting [4]) amounted to 298 µM.

Usually EC50 stands for the concentration at which the effect is half-maximal.

The values are drawn from EP0062018A1, “Novel phenyl-piperidines” (priority 1981, dated 1982).
